Data set [1] in a line: Acute toxicity in Kunming mouse assessed as effect on body weight at 625 to 2500 mg/kg, po measured at 4 to 14 days. Format: organism-based. The conditions noted are these: in vivo, dose lower 625 mg/kg, time lower 4 day, dose upper 2500 mg/kg, time upper 14 day.
Data set [2] deals with Mus musculus. The data set is described as follows: Antialzheimer activity in scopolamine-induced cognitive impairment Kunming mouse model assessed as number of errors in step down test at 20 mg/kg, po administered for 1 hr followed by scopolamine induction for 0.5 hr and measured after 5 min (Rvb=2.2). To be noted: time 95 min, 1.583 h. In kind it is functional.
Data set [3] relates to Mus musculus. Nature of the data set: Antialzheimer activity in scopolamine-induced cognitive impairment Kunming mouse model assessed as step down latency time at 80 mg/kg, po administered for 1 hr followed by scopolamine induction for 0.5 hr and measured after 5 min. In kind it is functional. The conditions noted are these: time 95 min, 1.583 h.
Data set [4] can be described thus: Selectivity index, ratio of IC50 for inhibition of human erythrocyte AChE to IC50 for inhibition of human serum BuChE.
In data set [5] the test system is PC-12. Nature of the data set: Activation of Nrf2-ARE pathway in rat PC-12 cells assessed as upregulation of NQO1 expression level incubated for 8 hrs by Western blot analysis. In kind it is cell-based. To be noted: filed as activator, dose >= 2.0 µM.
Another data set is described as follows: in vitro. To be noted: PAMPA. (The PAMPA barrier holds no transporters, so it reflects passive diffusion.)
Data set [6] has as its target Acetylcholinesterase (Electrophorus electricus, UniProt O42275). Nature of the data set: Inhibition of electric eel AChE using ATCI and BTCI as substrate preincubated for 5 mins followed by substrate addition and measured after 3 mins by DTNB-reagent based Ellman's method. Background: Ellman's reagent forms a yellow product with free thiols.
The target in data set [7] is Cholinesterase (Equus caballus, UniProt P81908). Nature of the data set: Inhibition of equine serum BuChE using ATCI and BTCI as substrate preincubated for 5 mins followed by substrate addition and measured after 3 mins by DTNB-reagent based Ellman's method. Format: cell-free.
A short description of data set [8]: Antioxidant activity assessed as trolox equivalent of ORAC radical scavenging activity by ORAC assay. Format: functional.
Data set [9] can be described thus: Cytotoxicity against mouse BV-2 cells assessed as cell viability at 10 uM measured after 24 hrs by CCK-8 assay. In kind it is toxicity, cell-based. The conditions noted are these: read-out: Activity. For orientation: Formazan colour is commonly taken as a measure of viable cells.
Data set [10] is described as follows: Acute toxicity in Kunming mouse assessed as abnormalities in liver at 2500 mg/kg, po measured on day 14 by H and E staining based histopathological analysis. The conditions noted are these: in vivo, 336 h, time 14 day. Format: organism-based.
Data set [11] has as its target Acetylcholinesterase (Homo sapiens, UniProt P22303). The data set is described as follows: Inhibition of human erythrocyte AChE using ATCI and BTCI as substrate preincubated for 5 mins followed by substrate addition and measured after 3 mins by DTNB-reagent based Ellman's method.
Data set [12] relates to PC-12. The data set is described as follows: Activation of Nrf2-ARE pathway in rat PC-12 cells assessed as upregulation of GPX4 expression level incubated for 8 hrs by Western blot analysis. Format: cell-based. To be noted: filed as activator, dose >= 2.0 µM.
Data set [13] has as its system PC-12. Nature of the data set: Activation of Nrf2-ARE pathway in rat PC-12 cells assessed as increase in Nrf2 expression level in nucleus at 1 uM by Western blot analysis. To be noted: filed as activator, time >= 8.0 hrs, TDE = time-dependent effect. In kind it is cell-based.
Data set [14] concerns Mus musculus. Nature of the data set: Antialzheimer activity in scopolamine-induced cognitive impairment Kunming mouse model assessed as number of errors in step down test at 80 mg/kg, po administered for 1 hr followed by scopolamine induction for 0.5 hr and measured after 5 min. Format: functional. The conditions noted are these: time 95 min, 1.583 h.
Data set [15] addresses T1, Cholinesterase (Homo sapiens, UniProt P06276). Nature of the data set: Inhibition of human serum BuChE using ATCI and BTCI as substrate preincubated for 5 mins followed by substrate addition and measured after 3 mins by DTNB-reagent based Ellman's method. Format: cell-free.
The nature of data set [16]: Acute toxicity in Kunming mouse assessed as abnormalities in kidney at 2500 mg/kg, po measured on day 14 by H and E staining based histopathological analysis. Format: organism-based. The conditions noted are these: in vivo, 336 h, time 14 day.
The target of data set [17] is T1, Cholinesterase. Nature of the data set: Mixed type inhibition of human BuChE assessed as inhibition constant using butyrylthiocholine iodide as substrate by lineweaver-burk plot analysis.
Data set [18] is described as follows: Acute toxicity in Kunming mouse assessed as abnormalities in brain at 2500 mg/kg, po measured on day 14 by H and E staining based histopathological analysis. In kind it is organism-based. The conditions noted are these: in vivo, 336 h, time 14 day.
A short description of data set [19]: Acute toxicity in Kunming mouse assessed as abnormalities in lung at 2500 mg/kg, po measured on day 14 by H and E staining based histopathological analysis. Format: organism-based. The conditions noted are these: in vivo, 336 h, time 14 day.
Data set [20] is described as follows: Acute toxicity in Kunming mouse at >= 2500 mg/kg, IG measured for 14 days. In kind it is organism-based. To be noted: in vivo, po, 336 h, time 14 day.
The test system of data set [21] is PC-12. Nature of the data set: Cytotoxicity against rat PC12 cells assessed as cell viability at 0.625 to 10 uM measured after 24 hrs by CCK-8 assay. In kind it is toxicity, cell-based. The conditions noted are these: pc-12, 24 h, dose 0.625-10 µM.
Data set [22] has as its system Mus musculus. The data set is described as follows: Antialzheimer activity in scopolamine-induced cognitive impairment Kunming mouse model assessed as step down latency time at 20 mg/kg, po administered for 1 hr followed by scopolamine induction for 0.5 hr and measured after 5 min (Rvb=36.25 sec). In kind it is functional. The conditions noted are these: time 95 min, 1.583 h.

For data set [23], the system named is PC-12. Nature of the data set: Activation of Nrf2-ARE pathway in rat PC-12 cells assessed as increase in Nrf2 expression level incubated for 4 to 8 hrs by Western blot analysis. Format: cell-based. The conditions noted are these: filed as activator, dose >= 2.0 µM, time 4-8 hrs.

T1 sequence (P06276 whole entry): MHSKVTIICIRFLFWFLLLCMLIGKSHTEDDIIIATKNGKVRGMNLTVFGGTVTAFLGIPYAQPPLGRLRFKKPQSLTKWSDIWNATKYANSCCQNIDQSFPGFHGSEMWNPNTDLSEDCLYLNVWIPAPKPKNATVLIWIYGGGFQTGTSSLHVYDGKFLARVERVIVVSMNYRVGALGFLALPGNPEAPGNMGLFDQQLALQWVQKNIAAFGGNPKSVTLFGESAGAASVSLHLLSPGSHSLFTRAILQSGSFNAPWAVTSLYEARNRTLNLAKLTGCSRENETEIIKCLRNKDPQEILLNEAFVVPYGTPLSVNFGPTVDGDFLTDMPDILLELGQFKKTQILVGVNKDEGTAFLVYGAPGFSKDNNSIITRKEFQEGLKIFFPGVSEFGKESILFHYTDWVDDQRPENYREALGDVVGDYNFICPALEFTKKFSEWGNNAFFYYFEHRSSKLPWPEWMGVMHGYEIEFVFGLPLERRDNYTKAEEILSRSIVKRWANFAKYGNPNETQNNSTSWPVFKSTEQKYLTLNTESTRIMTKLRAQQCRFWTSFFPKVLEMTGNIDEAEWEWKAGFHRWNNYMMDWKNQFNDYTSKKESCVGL
Sequence of Acetylcholinesterase (Homo sapiens, UniProt P22303) (P22303 whole entry): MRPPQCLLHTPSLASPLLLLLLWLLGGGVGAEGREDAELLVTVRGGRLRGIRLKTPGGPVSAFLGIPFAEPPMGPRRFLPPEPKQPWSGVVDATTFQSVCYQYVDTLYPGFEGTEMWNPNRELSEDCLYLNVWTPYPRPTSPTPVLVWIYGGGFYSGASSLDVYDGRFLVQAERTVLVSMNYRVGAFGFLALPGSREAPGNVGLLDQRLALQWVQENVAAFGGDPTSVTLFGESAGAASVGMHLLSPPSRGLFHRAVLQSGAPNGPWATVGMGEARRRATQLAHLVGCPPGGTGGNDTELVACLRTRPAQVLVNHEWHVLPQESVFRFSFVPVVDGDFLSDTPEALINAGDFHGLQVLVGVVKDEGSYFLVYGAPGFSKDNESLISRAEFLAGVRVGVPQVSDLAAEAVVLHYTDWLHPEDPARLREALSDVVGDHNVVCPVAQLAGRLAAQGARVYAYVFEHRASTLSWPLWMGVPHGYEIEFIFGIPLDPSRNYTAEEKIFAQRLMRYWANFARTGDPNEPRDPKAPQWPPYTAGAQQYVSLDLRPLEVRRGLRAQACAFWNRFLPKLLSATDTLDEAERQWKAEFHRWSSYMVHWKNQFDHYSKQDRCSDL
Sequence of Cholinesterase (Equus caballus, UniProt P81908) (P81908 whole entry): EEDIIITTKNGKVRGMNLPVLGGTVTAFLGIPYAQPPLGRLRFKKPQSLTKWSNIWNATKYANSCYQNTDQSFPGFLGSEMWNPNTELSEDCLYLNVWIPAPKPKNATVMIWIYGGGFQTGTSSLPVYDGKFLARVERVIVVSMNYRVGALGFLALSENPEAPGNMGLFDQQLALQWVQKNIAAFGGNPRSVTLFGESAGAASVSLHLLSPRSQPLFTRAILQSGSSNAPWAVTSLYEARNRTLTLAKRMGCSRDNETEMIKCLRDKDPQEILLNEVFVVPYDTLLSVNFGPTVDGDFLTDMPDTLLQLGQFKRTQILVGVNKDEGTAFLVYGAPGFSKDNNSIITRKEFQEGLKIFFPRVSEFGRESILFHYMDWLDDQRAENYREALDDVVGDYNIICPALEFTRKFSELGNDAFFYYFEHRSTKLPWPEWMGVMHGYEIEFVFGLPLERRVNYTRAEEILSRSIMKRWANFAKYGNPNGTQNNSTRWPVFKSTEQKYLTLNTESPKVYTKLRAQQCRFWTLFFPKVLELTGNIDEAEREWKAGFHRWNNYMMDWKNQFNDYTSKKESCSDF
Sequence of Acetylcholinesterase (Electrophorus electricus, UniProt O42275) (O42275 whole entry): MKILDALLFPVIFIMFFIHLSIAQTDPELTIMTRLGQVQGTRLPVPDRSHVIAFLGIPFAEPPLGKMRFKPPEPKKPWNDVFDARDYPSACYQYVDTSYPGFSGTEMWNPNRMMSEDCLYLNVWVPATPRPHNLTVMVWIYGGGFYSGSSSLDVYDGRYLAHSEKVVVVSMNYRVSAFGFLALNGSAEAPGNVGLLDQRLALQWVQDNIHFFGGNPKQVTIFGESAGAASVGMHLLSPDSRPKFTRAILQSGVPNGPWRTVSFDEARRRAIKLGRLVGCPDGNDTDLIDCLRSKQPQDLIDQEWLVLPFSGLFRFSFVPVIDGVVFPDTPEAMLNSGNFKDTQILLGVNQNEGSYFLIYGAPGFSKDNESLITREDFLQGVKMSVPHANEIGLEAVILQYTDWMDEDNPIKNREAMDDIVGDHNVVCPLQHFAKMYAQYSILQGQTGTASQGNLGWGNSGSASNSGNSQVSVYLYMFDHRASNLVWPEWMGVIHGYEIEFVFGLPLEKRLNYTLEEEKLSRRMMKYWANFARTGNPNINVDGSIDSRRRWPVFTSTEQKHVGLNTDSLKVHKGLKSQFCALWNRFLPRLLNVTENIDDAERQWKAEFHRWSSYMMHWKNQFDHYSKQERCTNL
Description for in vitro: Permeability coefficient of the compound across blood brain barrier incubated for 18 hrs by PAMPA assay

As for `CN(CCCCCCCCCCCCn1cc(C=O)c2cc(O)ccc21)Cc1cccc(O)c1`, the Activity entry in [1] was “Non-Toxic”; in the data set on Mus musculus [2], 2.5; in the data set on PC-12 [5], “Dose-Dependent Effect”; in [8], 5.13 equiv; in data set [10] it was “Non-Toxic”; with PC-12 [12], “Dose-Dependent Effect”. Also, the Activity entry in the data set with PC-12 [13] was “Tde”; with Mus musculus [14], 0.6; in [16] it was “Non-Toxic”; in data set [18], “Non-Toxic”; in [19] it was “Non-Toxic”; in data set [20], “Non-Toxic”. Further, the results for the Activity result in the data set on PC-12 [21] and in the data set with PC-12 [23] were “Non-Toxic” and “Dose-Dependent Effect”, respectively. The results for the Time with Mus musculus [3] and in the data set on Mus musculus [22] were 233 s and 17.6 s, respectively. In [4], the Ratio IC50 worked out at 148. Moreover, the apparent permeability (Papp) (as a rule, the rate of passage across a membrane or cell layer, normalised by area and donor concentration) at 18 h in the data set “in vitro” worked out at 9.98 ×10⁻⁶ cm/s. The IC50 (as a rule, the midpoint of a concentration-inhibition curve) was determined as 69500 nM against Acetylcholinesterase [6], 2140 nM against Cholinesterase [7], 177000 nM on Acetylcholinesterase [11] and 1200 nM on Cholinesterase [15]. The viability at 24 h, 10 µM in data set [9] is above 50%. Besides, the inhibition constant Ki (commonly a dissociation constant, usually derived from enzyme kinetics or from competition with a known ligand) at Cholinesterase [17] turned out to be 1770 nM.

The record behind these values is ChEMBL document CHEMBL5236653, “Dual functional antioxidant and butyrylcholinesterase inhibitors for the treatment of Alzheimer's disease: Design, synthesis and evaluation of novel melatonin-alkylbenzylamine hybrids” (Bioorg Med Chem, 2023).
